From patent US20070112018A1, “Treatment of peripheral arterial occlusive disease” (priority 2005, published 2007)

Experiments:
Chlamydia = assay: Phase 2 study in men with non-gonococcal urethritis, eradication of Chlamydia; type: in vivo, human
Text: The use of rifalazil in the treatment of PAOD is supported by both preclinical and clinical lines of evidence.
Due to the recalcitrant response of C. pneumoniae to antibiotic therapy, the duration of therapy is thought to be an important parameter for optimizing treatment. Previous large well-controlled randomized studies have tested long term antibiotic therapy in the CHD population. A longer term treatment schedule with rifalazil than was utilized in eradicating C. trachomatis in NGU (single dose) may represent a preferred therapeutic regimen for producing a clinically beneficial effect on C. pneumoniae in patients with PAOD. Further, dosing of PAOD patients with rifalazil for a duration of 8 weeks may further optimize therapeutic effect against C. pneumoniae in these patients. Chlamydia pneumoniae infects the vasculature, and to elicit significant antibacterial activity against this pathogen, longer courses of treatment than those directed at C. trachomatis (i.e., single dose) are preferred. Pharmacokinetic and pharmacodynamic modeling predict that this dosage will provide continuous plasma and tissue concentrations of rifalazil above the MIC90 for C. pneumoniae for over 9 weeks. A single dose of 25 mg rifalazil administered once per week for up to 4 weeks was not associated with significant adverse effects in Phase 1 studies. […]

[1] = Non-clinical oral pharmacokinetics, all species evaluated; type: in vivo; settings: oral administration
Experimental: Since the PK profile of rifalazil has been studied in man, only a brief summary of the non-clinical PK is provided. Overall, the absorption, distribution, metabolism, and elimination of rifalazil observed in the animals studied are similar to those observed in man.
Peak plasma concentrations were observed from 4 to 18 hours after oral administration.

[2] = Placebo-controlled study of 30 mg and 100 mg in healthy volunteers, adverse events; type: in vivo, human
Experimental: In a placebo-controlled study of 30 mg and 100 mg in […], […] received the 30 mg dose of rifalazil. Sixty-two percent of patients (5/8) reported AEs while 33% of placebo subjects (3/9) reported AEs. The only AE of note reported in this rifalazil dose group was headache (38%, […]) compared to the placebo-treated group (11%, 1/9 subjects). […] However, this baseline value was not considered clinically significant nor were subsequent nadir values obtained on Days 3 and 7 (3.8×10^3 cells/mm^3).

[3] = Phase 1 Study ABI-1648-006, single oral dose pharmacokinetics; settings: for half-life / Tmax / CL/F / AUC(0-inf) / Cmax: human, plasma; for AUC0−∞/Dose Mean / Cmax/Dose Mean: normalized to mg/kg
Experimental: Study ABI-1648-006 was conducted to evaluate the PK of single and multiple oral doses of 2.5, 5, 12.5, and 25 mg administered to healthy male and female volunteers.

[4] = females, single oral dose 2.5 mg
[5] = females, single oral dose 12.5 mg
[6] = females, single oral dose 25 mg
[7] = males, single oral dose 12.5 mg

**Q.** What does the source list for `CO[C@H]1/C=C/O[C@@]2(C)Oc3c(C)c(O)c4c(=O)c(c5oc6cc(N7CCN(CC(C)C)CC7)cc(O)c6nc-5c4c3C2=O)NC(=O)/C(C)=C\C=C\[C@H](C)[C@H](O)[C@@H](C)[C@@H](O)[C@@H](C)[C@H](OC(C)=O)[C@@H]1C` [rifalazil, 3′-hydroxy-5′-(4-isobutyl-1-piperazinyl) benzoxazinorifamycin]?
**A.** anti-chlamydial activity in patients with NGU (Chlamydia; oral 25 mg): significant anti-chlamydial activity; patients in whom Chlamydia was eradicated (Chlamydia; single oral dose): > 86%; Cmax and AUC as a function of dose [1]: dose-dependent but not dose-proportional; headache ([2]; 30 mg single oral dose (3/5 subjects)): 38%; patients reporting AEs ([2]; 30 mg single oral dose (5/8)): Sixty-two; WBC count nadir values, one subject ([2]; 30 mg single oral dose, Days 3 and 7, baseline 4.3×10^3): 3.8×10^3 cells/mm^3; Time to maximum concentration ([3]; after single dose administration (study conclusions)): 4 to 6 h; half-life ([3]; both, oral, elimination t1/2, study conclusions): 100 to 150 h; Tmax ([3]; both, po): 4.8 to 6.2 h; half-life ([3]; both, po, mean distribution t1/2, range across groups, single oral doses 2.5-25 mg, males and females): 4.5 to 8.6 h; half-life ([3]; both, po, mean elimination t1/2, range across groups, single oral doses 2.5-25 mg, males and females): 101 to 150 h; CL/F ([3]; female, po, 2.5 mg): 4.17 mL/min/kg; Tmax ([3]; female, po, 2.5 mg): 4.8 h; AUC(0-inf) ([3]; female, po, 2.5 mg, AUC0−∞ GMean (geometric mean), females, single oral dose 2.5 mg): 168 ng·h/mL; AUC(0-inf) ([3]; female, po, 2.5 mg, AUC0−∞ Mean, females, single oral dose 2.5 mg): 174 ng·h/mL; Cmax ([3]; female, po, 2.5 mg, Cmax GMean (geometric mean), females, single oral dose 2.5 mg): 7.1 ng/mL; Cmax ([3]; female, po, 2.5 mg, Cmax Mean, females, single oral dose 2.5 mg): 7.5 ng/mL; half-life ([3]; female, po, 2.5 mg, Distribution t1/2 Mean, females, single oral dose 2.5 mg): 5 h; half-life ([3]; female, po, 2.5 mg, Elimination t1/2 Mean, females, single oral dose 2.5 mg): 133 h; CL/F ([3]; female, po, 5 mg): 3.83 mL/min/kg; Tmax ([3]; female, po, 5 mg): 5 h; AUC(0-inf) ([3]; female, po, 5 mg, AUC0−∞ GMean (geometric mean), females, single oral dose 5 mg): 373 ng·h/mL; AUC(0-inf) ([3]; female, po, 5 mg, AUC0−∞ Mean, females, single oral dose 5 mg): 397 ng·h/mL; Cmax ([3]; female, po, 5 mg, Cmax GMean (geometric mean), females, single oral dose 5 mg): 13.5 ng/mL; Cmax ([3]; female, po, 5 mg, Cmax Mean, females, single oral dose 5 mg): 14.6 ng/mL; half-life ([3]; female, po, 5 mg, Distribution t1/2 Mean, females, single oral dose 5 mg): 4.5 h; half-life ([3]; female, po, 5 mg, Elimination t1/2 Mean, females, single oral dose 5 mg): 137 h; CL/F ([3]; female, po, 12.5 mg): 6.5 mL/min/kg; Tmax ([3]; female, po, 12.5 mg): 6.2 h; AUC(0-inf) ([3]; female, po, 12.5 mg, AUC0−∞ GMean (geometric mean), females, single oral dose 12.5 mg): 526 ng·h/mL; AUC(0-inf) ([3]; female, po, 12.5 mg, AUC0−∞ Mean, females, single oral dose 12.5 mg): 540 ng·h/mL; Cmax ([3]; female, po, 12.5 mg, Cmax GMean (geometric mean), females, single oral dose 12.5 mg): 19.9 ng/mL; Cmax ([3]; female, po, 12.5 mg, Cmax Mean, females, single oral dose 12.5 mg): 20.8 ng/mL; half-life ([3]; female, po, 12.5 mg, Distribution t1/2 Mean, females, single oral dose 12.5 mg): 6.1 h; half-life ([3]; female, po, 12.5 mg, Elimination t1/2 Mean, females, single oral dose 12.5 mg): 110 h; CL/F ([3]; female, po, 25 mg): 7.17 mL/min/kg; Tmax ([3]; female, po, 25 mg): 4.8 h; AUC(0-inf) ([3]; female, po, 25 mg, AUC0−∞ GMean (geometric mean), females, single oral dose 25 mg): 1020 ng·h/mL; AUC(0-inf) ([3]; female, po, 25 mg, AUC0−∞ Mean, females, single oral dose 25 mg): 1100 ng·h/mL; Cmax ([3]; female, po, 25 mg, Cmax GMean (geometric mean), females, single oral dose 25 mg): 33.3 ng/mL; Cmax ([3]; female, po, 25 mg, Cmax Mean, females, single oral dose 25 mg): 36.5 ng/mL; half-life ([3]; female, po, 25 mg, Distribution t1/2 Mean, females, single oral dose 25 mg): 7.8 h; half-life ([3]; female, po, 25 mg, Elimination t1/2 Mean, females, single oral dose 25 mg): 150 h; Vdβ/F Mean [3, 4]: 45.0 L/kg; AUC0−∞/Dose Mean [3, 4]: 4274.6; Cmax/Dose Mean [3, 4]: 183.1; Vdβ/F Mean ([3]; females, single oral dose 5 mg): 41.6 L/kg; AUC0−∞/Dose Mean ([3]; females, single oral dose 5 mg): 5124.5; Cmax/Dose Mean ([3]; females, single oral dose 5 mg): 185.1; Vdβ/F Mean [3, 5]: 61.6 L/kg; AUC0−∞/Dose Mean [3, 5]: 2759.4; Cmax/Dose Mean [3, 5]: 106.9; Vdβ/F Mean [3, 6]: 82.8 L/kg; AUC0−∞/Dose Mean [3, 6]: 2796.3; Cmax/Dose Mean [3, 6]: 91.3; CL/F ([3]; male, po, 2.5 mg): 3.5 mL/min/kg; Tmax ([3]; male, po, 2.5 mg): 5.3 h; AUC(0-inf) ([3]; male, po, 2.5 mg, AUC0−∞ GMean (geometric mean), males, single oral dose 2.5 mg): 172 ng·h/mL; AUC(0-inf) ([3]; male, po, 2.5 mg, AUC0−∞ Mean, males, single oral dose 2.5 mg): 188 ng·h/mL; Cmax ([3]; male, po, 2.5 mg, Cmax GMean (geometric mean), males, single oral dose 2.5 mg): 7.8 ng/mL; Cmax ([3]; male, po, 2.5 mg, Cmax Mean, males, single oral dose 2.5 mg): 8.4 ng/mL; half-life ([3]; male, po, 2.5 mg, Distribution t1/2 Mean, males, single oral dose 2.5 mg): 5.3 h; half-life ([3]; male, po, 2.5 mg, Elimination t1/2 Mean, males, single oral dose 2.5 mg): 101 h; CL/F ([3]; male, po, 12.5 mg): 5.5 mL/min/kg; Tmax ([3]; male, po, 12.5 mg): 5 h; AUC(0-inf) ([3]; male, po, 12.5 mg, AUC0−∞ GMean (geometric mean), males, single oral dose 12.5 mg): 528 ng·h/mL; AUC(0-inf) ([3]; male, po, 12.5 mg, AUC0−∞ Mean, males, single oral dose 12.5 mg): 552 ng·h/mL; Cmax ([3]; male, po, 12.5 mg, Cmax GMean (geometric mean), males, single oral dose 12.5 mg): 19.2 ng/mL; Cmax ([3]; male, po, 12.5 mg, Cmax Mean, males, single oral dose 12.5 mg): 19.7 ng/mL; half-life ([3]; male, po, 12.5 mg, Distribution t1/2 Mean, males, single oral dose 12.5 mg): 7.7 h; half-life ([3]; male, po, 12.5 mg, Elimination t1/2 Mean, males, single oral dose 12.5 mg): 134 h; CL/F ([3]; male, po, 25 mg): 8 mL/min/kg; Tmax ([3]; male, po, 25 mg): 5 h; AUC(0-inf) ([3]; male, po, 25 mg, AUC0−∞ GMean (geometric mean), males, single oral dose 25 mg): 656 ng·h/mL; AUC(0-inf) ([3]; male, po, 25 mg, AUC0−∞ Mean, males, single oral dose 25 mg): 683 ng·h/mL; Cmax ([3]; male, po, 25 mg, Cmax GMean (geometric mean), males, single oral dose 25 mg): 23.9 ng/mL; Cmax ([3]; male, po, 25 mg, Cmax Mean, males, single oral dose 25 mg): 24.7 ng/mL; half-life ([3]; male, po, 25 mg, Distribution t1/2 Mean, males, single oral dose 25 mg): 8.7 h; half-life ([3]; male, po, 25 mg, Elimination t1/2 Mean, males, single oral dose 25 mg): 116 h; Vdβ/F Mean ([3]; males, single oral dose 2.5 mg): 25.4 L/kg; AUC0−∞/Dose Mean ([3]; males, single oral dose 2.5 mg): 6084.0; Cmax/Dose Mean ([3]; males, single oral dose 2.5 mg): 269.6; Vdβ/F Mean [3, 7]: 62.3 L/kg; AUC0−∞/Dose Mean [3, 7]: 3299.8; Cmax/Dose Mean [3, 7]: 117.4; Vdβ/F Mean ([3]; males, single oral dose 25 mg): 74.2 L/kg; AUC0−∞/Dose Mean ([3]; males, single oral dose 25 mg): 2273.8; Cmax/Dose Mean ([3]; males, single oral dose 25 mg): 82.0
